Source: patent US6770649B2, “1-[1-(hetero)aryl-1-perhydroxyalkylmethyl]-piperazine compounds, process for their preparation and pharmaceutical compositions containing them” (Solvay Pharmaceuticals GmbH, priority 2001, dated 2004)

Each molecule was assayed against T1, human NK-2 receptor (Homo sapiens, UniProt P21452) (assay: Binding power of the test substances to NK-2 receptors in vitro ([3H]-SR 48968 displacement, CHO cell membranes)). Conditions: displacement of [3H]-SR 48968, 90 min incubation, average of at least three measurements, 10^-6 to 10^-10 mol/l, read-out: pKi, affinity to human NK-2 receptors (converted).
T1 construct: expressed in transfected cells; host or cells: CHO cells (membrane preparation)
T1 sequence (P21452 1-398): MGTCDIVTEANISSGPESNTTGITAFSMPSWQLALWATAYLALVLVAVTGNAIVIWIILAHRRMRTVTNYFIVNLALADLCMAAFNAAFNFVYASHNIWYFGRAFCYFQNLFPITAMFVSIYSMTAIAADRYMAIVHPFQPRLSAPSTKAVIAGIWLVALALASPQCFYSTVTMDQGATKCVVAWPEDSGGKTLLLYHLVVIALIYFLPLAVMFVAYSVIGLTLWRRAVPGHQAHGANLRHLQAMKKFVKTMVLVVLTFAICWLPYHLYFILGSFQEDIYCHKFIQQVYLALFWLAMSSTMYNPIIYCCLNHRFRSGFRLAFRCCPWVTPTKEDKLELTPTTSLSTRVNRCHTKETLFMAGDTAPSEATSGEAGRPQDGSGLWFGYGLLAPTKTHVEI
Protocol: 1. Determination of the Binding Power of the Test Substances to NK-2 Receptors in vitro
The affinity of the test substances to human NK-2 receptors was measured in vitro. The ability of the test substances to displace the selective NK-2 receptor antagonist SR 48968 (=saredutant) used as reference ligand from its corresponding bond was determined.
The receptor binding studies were carried out with radioactively marked [^3H]-SR 48968 (from Amersham) as ligand. For the binding test, different samples of a membrane preparation of CHO cells (=[…]), which express the human NK-2 receptor (for preparation, see N. P. Gerard et al., Journal of Biological Chemistry 265/33 (1990) 20455-20462), were incubated for 90 minutes (=min.) with a solution of the marked ligand, with the incubation mixtures containing no test substance or additions of different concentrations of test substance. Then in each case the membrane-bound ligands in the samples were separated from free ligands by filtration. The fraction remaining in the filter was washed several times with buffer solution, before its radioactivity was measured using a liquid scintillation counter. That concentration which effects half-maximum displacement of the bound reference ligand was determined as IC50 of the respective test substance. The inhibition constant (Ki value) of the test substance was calculated from the respective IC50 value, and was stated as the negative logarithmised value thereof (pKi).
For the compounds of Examples 1 to 39, the affinity to human NK-2 receptors was determined in each case by at least three measurements of the test substances in concentration series of 10^−6 to 10^−10 mol/l. If several measurements were performed, the average thereof was listed each time.

| Ki | SMILES |
| --- | --- |
| ≤ 10 nM | CN(CC(CCN1CCN(C(c2ccco2)[C@H](O)[C@@H](O)[C@H](O)CO)CC1)c1ccc(Cl)c(Cl)c1)C(=O)c1ccccc1 (mixture of isomers) [Example 13] |
| ≤ 1 nM | CN(C[C@@H](CCN1CCN(C(c2ccsc2)[C@H](O)[C@@H](O)[C@H](O)CO)CC1)c1ccc(Cl)c(Cl)c1)C(=O)c1ccccc1 (stereo partly drawn) [Example 1, N-((2S)-2-(3,4-dichlorophenyl)-4-{4-[(2S,3R,4R)-2,3,4,5-tetrahydroxy-1-(3-thienyl)pentyl]-1-piperazinyl}butyl)-N-methylbenzamide] |
| ≤ 10 nM | CC(=O)OC[C@@H](OC(C)=O)[C@H](OC(C)=O)[C@@H](OC(C)=O)C(c1ccsc1)N1CCN(CC[C@H](CN(C)C(=O)c2ccccc2)c2ccc(Cl)c(Cl)c2)CC1 (stereo partly drawn) [Example 14] |
